From ChEMBL document CHEMBL1125173, “Cannabimimetic activity of novel enantiomeric, benzofuran cannabinoids” (1990)

Columns and labels:
Assay type in all cases: functional
Columba livia [1] = experiment: Effective Dose when administered in pigeons; conditions: in Columbidae
Rattus norvegicus [2] = experiment: Effective Dose when administered at a dose of 0.94 mg/kg in rats
Mus musculus [3] = experiment: Psychotropic Effect evaluated by Mouse Ring Test at a dose of 0.1 mg/kg
Mus musculus [4] = experiment: Psychotropic Effect evaluated by Mouse Ring Test at a dose of 10 mg/kg
Mus musculus [5] = experiment: Psychotropic Effect evaluated by Mouse Ring Test at a dose of 1 mg/kg
Mus musculus [6] = experiment: Psychotropic Effect evaluated by Mouse Ring Test at a dose of 20 mg/kg
Columba livia [7] = experiment: Effective Dose when administered at a dose of 0.99 mg/kg in pigeons; conditions: in Columbidae
Rattus norvegicus [8] = experiment: Effective Dose when administered at a dose of 0.98 mg/kg in rats
Columba livia [9] = experiment: Effective Dose when administered at a dose of 0.78 mg/kg in pigeons; conditions: in Columbidae

CCCCCc1cc(O)c2c(c1)OC(C)(C)[C@@H]1CCC(C)=C[C@@H]21 [DRONABINOL]
ED50 (Columba livia [1]): 0.18 mg/kg | ED50 (Rattus norvegicus [2]): 0.66 mg/kg

C=C1[C@H]2Oc3cc(C(C)(C)CCCCCC)cc(O)c3[C@H]2[C@@H]2C[C@H]1C2(C)C
Psychotropic Effect (Mus musculus [3]): 13.2 | Psychotropic Effect (Mus musculus [4]): 66.1 | Psychotropic Effect (Mus musculus [5]): 42 | Psychotropic Effect (Mus musculus [6]): 89.2 | ED50 (Columba livia [7]): 0.17 mg/kg | ED50 (Rattus norvegicus [8]): 0.72 mg/kg

CCCCCc1cc(O)c2c(c1)OC(C)(C)[C@@H]1CC=C(C)C[C@@H]21 [DELTA-8-TETRAHYDROCANNABINOL]
Psychotropic Effect (Mus musculus [3]): 13.2 | Psychotropic Effect (Mus musculus [4]): 41.3 | Psychotropic Effect (Mus musculus [5]): 20.9

C=C1[C@H]2Oc3cc(C(C)(C)CCCCCC)cc(O)c3[C@H]2[C@H]2C[C@@H]1C2(C)C
Psychotropic Effect (Mus musculus [3]): 10 | Psychotropic Effect (Mus musculus [4]): 28.1 | Psychotropic Effect (Mus musculus [5]): 20 | Psychotropic Effect (Mus musculus [6]): 43.2 | ED50 (Columba livia [9]): 3.57 mg/kg
